# Source: ChEMBL document CHEMBL1201862, “PubChem BioAssay data set” (2004)
#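 Grown in 96-well plates, cells were treated for 48 hours with each compound at five concentrations. Insufficient inhibition: endpoint recorded as highest concentration tested. At the GI50, growth is halved.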 The source made the active and inactive calls. No stated cut-off is given here; in the data, active = GI50 up to about 1.1 µM and inactive = higher. Where a SMILES comes first, the peptide text is derived from it. The star is where a group is joined. Cbz = O=C(OCc1ccccc1)*; Boc = CC(C)(C)OC(=O)*; OSu = O=C1CCC(=O)N1O*; Bn = c1ccc(C*)cc1
# Key:
# Assay in all cases: DTP human tumour cell line panel, 48 h
# [1] = tested on: BT-549
# [2] = tested on: Hs-578T
# [3] = tested on: DMS-273
# [4] = tested on: HOP-18
# [5] = tested on: M19-MEL
# [6] = tested on: XF498
# [7] = tested on: DMS-114
# [8] = tested on: T47D
Structure (SMILES),GI50 [1],GI50 [2],GI50 [8],other results
CCN(CC)C(=S)N/N=C(/c1ccccc1)c1ccccn1,0.471 µM (active),> 37.6 µM (inactive),,
COc1cc(O)c(C(=O)/C=C/c2ccc(OC)c(OCc3ccccc3)c2)c(OC)c1,,,,GI50 [3]: 0.175 µM (active); GI50 [4]: > 100 µM (inactive); GI50 [5]: > 100 µM (inactive); GI50 [6]: > 100 µM (inactive)
CC12CC(=O)OC(Cc3ccccc31)O2 (stereo not drawn),,,,GI50 [7]: > 100 µM (inactive); GI50 [3]: > 100 µM (inactive); GI50 [4]: > 100 µM (inactive); GI50 [5]: > 100 µM (inactive); GI50 [6]: > 100 µM (inactive)
ClC1=C(Cl)C2OC3C=CCC3OC2C(Cl)=C1Cl (stereo not drawn),,27.5 µM (inactive),2.47 µM (inactive),
COc1cc(NCc2ccc3nc(-c4ccccc4)c(N)nc3c2)cc(OC)c1OC,,,25.9 µM (inactive),
C[N+](C)(C)CC1CCCc2ccccc2C1=O (stereo not drawn),19.1 µM (inactive),37.8 µM (inactive),1.73 µM (inactive),
CC(C)=NN/C(=N\c1ccc(Cl)cc1)NS(=O)(=O)c1ccc(C)cc1,> 100 µM (inactive),> 100 µM (inactive),23.8 µM (inactive),
NNC(=O)c1cc(=O)[nH][nH]1,> 100 µM (inactive),> 100 µM (inactive),> 100 µM (inactive),
Cc1nc2ccc(Cl)cc2c2c1CCS2,,28.6 µM (inactive),> 100 µM (inactive),
CCN(CC)Cc1cc(/N=N\c2c(O)ccc3c(/N=N\c4ccc(O)c(CN(CC)CC)c4)c(O)ccc23)ccc1O,4.92 µM (inactive),3.73 µM (inactive),10.3 µM (inactive),
N#C/C=C(/NC(=O)Nc1ccccc1)N1CCCC1,> 67.5 µM (inactive),> 86.1 µM (inactive),> 85.1 µM (inactive),
C(/COc1cccnc1)=N\NC1=NCCN1,,,,GI50 [7]: > 100 µM (inactive); GI50 [3]: > 100 µM (inactive); GI50 [4]: > 100 µM (inactive); GI50 [5]: > 100 µM (inactive); GI50 [6]: > 100 µM (inactive)
C/C(=C\CC[C@]1(C)OC(C)(C)OC1CC/C(C)=C/CO[Si](c1ccccc1)(c1ccccc1)C(C)(C)C)CC/C=C/CO[Si](C)(C)C(C)(C)C (stereo partly drawn),,,,GI50 [7]: > 100 µM (inactive); GI50 [3]: > 100 µM (inactive); GI50 [5]: > 100 µM (inactive)
COc1ccc(C2=CC(c3ccc4c(c3)OCO4)c3c(c4ccccc4oc3=O)O2)cc1OC (stereo not drawn),,1.65 µM (inactive),0.685 µM (active),
O=C(N/N=C/c1ccco1)c1cc(I)cc(I)c1O,> 50 µM (inactive),34.5 µM (inactive),26 µM (inactive),
O=C(CN1CCN(C(=O)OCc2ccccc2)CCN(CC(=O)N2CCCCC2)CCN(C(=O)OCc2ccccc2)CC1)N1CCCCC1,23.1 µM (inactive),14.3 µM (inactive),17 µM (inactive),

Structure (SMILES),GI50 [1],GI50 [2],GI50 [8],other results
COC1=CC2=NCCc3n[nH]c(c32)C1=O,16.9 µM (inactive),29.8 µM (inactive),2.9 µM (inactive),
C/C=C/[C@@H]1O[C@H](CC#C[Si](C)(C)C)[C@@]2(C=O)C(C)=CC[C@H](C(C)C)[C@@H]12,22.4 µM (inactive),33.3 µM (inactive),30.8 µM (inactive),
CC(NC(=O)OC(C)(C)C)C(=O)NC(Cc1ccccc1)C(=O)NCC(=O)Oc1c(Cl)c(Cl)c(Cl)c(Cl)c1Cl (stereo not drawn),23.5 µM (inactive),37.5 µM (inactive),,
CN(CCO)CC(=O)CC(O)(C(F)(F)F)C(F)(F)F,43.7 µM (inactive),21.3 µM (inactive),28.4 µM (inactive),
COc1ccc(C2C3=CONC3CC3CCCCC32)cc1 (stereo not drawn),> 100 µM (inactive),,35.6 µM (inactive),
O=C(O)CC1CC=C[C@H]2c3cc4c(cc3C(=O)NC12)OCO4 (stereo partly drawn),,,,GI50 [7]: > 75 µM (inactive); GI50 [3]: > 75 µM (inactive); GI50 [5]: > 75 µM (inactive)
O=S(=O)(O)c1cc(/N=N/c2c(O)ccc3ccccc23)c2c(S(=O)(=O)O)cccc2c1,> 100 µM (inactive),> 100 µM (inactive),,
CCN1CN(c2ccccc2)C2(CCN(CCCSc3ccc(F)cc3)CC2)C1=O,8.61 µM (inactive),,3.26 µM (inactive),
COc1cccc2c(=O)c3c(O)c4cc(N(C)C)ccc4c(OC(C)=O)c3oc12,10.2 µM (inactive),14.3 µM (inactive),,
COC(=O)CC1C2CC3C(C2=O)C13 (stereo not drawn),,> 100 µM (inactive),> 100 µM (inactive),
NC(=O)c1cc2ccccc2o/c1=N/c1ccccc1,> 100 µM (inactive),> 100 µM (inactive),> 100 µM (inactive),
O/N=C/c1ccc(O)c(O)c1,,,,GI50 [7]: 14.7 µM (inactive); GI50 [3]: 62.5 µM (inactive); GI50 [5]: > 100 µM (inactive); GI50 [6]: > 100 µM (inactive)
Nc1nc(SCc2ccccn2)c2ncn(C3CCCC3)c2n1,> 100 µM (inactive),25.9 µM (inactive),76 µM (inactive),
CC(C)(C)OC(=O)NC(Cc1ccc(OCc2ccccc2)cc1)C(=O)NC(CCCCNC(=O)OCc1ccccc1)C(=O)ON1C(=O)CCC1=O (stereo not drawn) (Boc-Tyr(Bn)-Lys(Cbz)-OSu; configuration not given here),21.6 µM (inactive),20.3 µM (inactive),,
CN1CCN(/C(N)=C(\C#N)C(=O)Nc2ccc(Cl)cc2)CC1,> 100 µM (inactive),,> 100 µM (inactive),
CCC(NC(C)c1ccccc1)C(=O)c1ccc(OCc2ccccc2)c(OCc2ccccc2)c1 (stereo not drawn),> 100 µM (inactive),> 100 µM (inactive),> 100 µM (inactive),
